Experimental data taken from patent publication US3954875A, “Benzophenone herbicides” (Rohm and Haas Company, priority 1973, dated 1976).

Assays:
Dicots = assay: Preemergence weed control in flats (Example 14, Table II), dicot weeds; format: in vivo; details: about 2 weeks after application
Protocol: (§1) Using the procedure described below, the benzophenones of Examples 1 and 2 were evaluated for control of the following weeds:
Coffeeweed (Sesbania spp.)
velvetleaf (Abutilon theophrasti)
(§2) The following test procedure is employed. Seeds of selected weeds are planted in soil in flats, and the flats are treated with the test compound immediately after the planting. The compound to be evaluated is dissolved in acetone, diluted with water, and sprayed over the flats using a carrier volume equivalent to 50 gallons per acre at the rate of application (pounds per acre, lb/A.) specified in the tables. About 2 weeks after the application of the test compound, the state of growth of the plants is observed and the phytotoxic effect of the compound is evaluated. Table II gives the average percent control achieved by the test compounds in terms of the percent of the plants which are killed by the compounds.

Monocots = assay: Preemergence weed control in flats (Example 14, Table II), monocot weeds; format: in vivo; details: about 2 weeks after application
Protocol: as §1
Barnyardgrass (Echinochloa crusgalli)
Crabgrass (Digitaria spp.)
Foxtail (Setaria italica)
Johnsongrass (Sorghum halepense)
Quackgrass (Agropyron repens)
Yellow millet (Panicum miliaceaum)
Wild oats (Sesbania spp.)
as §2

## COc1ccc(C(=O)c2cccc(C(F)(F)F)c2)cc1C [Example 1, 4-methoxy-3-methyl-3'-trifluoromethylbenzophenone]
Dicots; 2 lb./A.
  % Control, Dicots (average percent of the plants killed): 65%
Dicots; 4 lb./A.
  % Control, Dicots (average percent of the plants killed): 70%
Dicots; 8 lb./A.
  % Control, Dicots (average percent of the plants killed): 85%
Monocots; 2 lb./A.
  % Control, Monocots (average percent of the plants killed): 91%
Monocots; 4 lb./A.
  % Control, Monocots (average percent of the plants killed): 97%
Monocots; 8 lb./A.
  % Control, Monocots (average percent of the plants killed): 99%

## COc1ccc(C(=O)c2cccc(C)c2)cc1C [Example 2, 4-methoxy-3,3'-dimethylbenzophenone]
Dicots; 2 lb./A.
  % Control, Dicots (average percent of the plants killed): 60%
Dicots; 4 lb./A.
  % Control, Dicots (average percent of the plants killed): 55%
Dicots; 8 lb./A.
  % Control, Dicots (average percent of the plants killed): 65%
Monocots; 2 lb./A.
  % Control, Monocots (average percent of the plants killed): 88%
Monocots; 4 lb./A.
  % Control, Monocots (average percent of the plants killed): 93%
Monocots; 8 lb./A.
  % Control, Monocots (average percent of the plants killed): 100%
